These results are taken from ChEMBL document CHEMBL1201862, “PubChem BioAssay data set” (2004).

The target in one test is T1, Caspase-3 (Homo sapiens, UniProt P42574).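 Note: Dose-response selectivity test against caspase-3 for candidate inhibitors of sentrin-specific proteases (SENPs).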
T1 sequence (P42574 whole entry): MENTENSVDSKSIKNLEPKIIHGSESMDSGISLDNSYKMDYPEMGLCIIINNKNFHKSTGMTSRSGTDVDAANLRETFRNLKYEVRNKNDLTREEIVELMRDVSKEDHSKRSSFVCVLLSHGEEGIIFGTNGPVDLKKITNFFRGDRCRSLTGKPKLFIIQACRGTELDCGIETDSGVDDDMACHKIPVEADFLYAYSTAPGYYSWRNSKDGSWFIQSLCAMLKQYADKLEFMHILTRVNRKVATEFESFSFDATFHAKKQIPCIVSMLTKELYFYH
The test is classed as functional.

For test [1], the target named is T2, Sentrin-specific protease 7 (Homo sapiens, UniProt Q9BQF6).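 Note: Luminescence-based dose-response confirmation of ultra-high-throughput screening hits, measuring inhibition of SENP7.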
T2 sequence (Q9BQF6 whole entry): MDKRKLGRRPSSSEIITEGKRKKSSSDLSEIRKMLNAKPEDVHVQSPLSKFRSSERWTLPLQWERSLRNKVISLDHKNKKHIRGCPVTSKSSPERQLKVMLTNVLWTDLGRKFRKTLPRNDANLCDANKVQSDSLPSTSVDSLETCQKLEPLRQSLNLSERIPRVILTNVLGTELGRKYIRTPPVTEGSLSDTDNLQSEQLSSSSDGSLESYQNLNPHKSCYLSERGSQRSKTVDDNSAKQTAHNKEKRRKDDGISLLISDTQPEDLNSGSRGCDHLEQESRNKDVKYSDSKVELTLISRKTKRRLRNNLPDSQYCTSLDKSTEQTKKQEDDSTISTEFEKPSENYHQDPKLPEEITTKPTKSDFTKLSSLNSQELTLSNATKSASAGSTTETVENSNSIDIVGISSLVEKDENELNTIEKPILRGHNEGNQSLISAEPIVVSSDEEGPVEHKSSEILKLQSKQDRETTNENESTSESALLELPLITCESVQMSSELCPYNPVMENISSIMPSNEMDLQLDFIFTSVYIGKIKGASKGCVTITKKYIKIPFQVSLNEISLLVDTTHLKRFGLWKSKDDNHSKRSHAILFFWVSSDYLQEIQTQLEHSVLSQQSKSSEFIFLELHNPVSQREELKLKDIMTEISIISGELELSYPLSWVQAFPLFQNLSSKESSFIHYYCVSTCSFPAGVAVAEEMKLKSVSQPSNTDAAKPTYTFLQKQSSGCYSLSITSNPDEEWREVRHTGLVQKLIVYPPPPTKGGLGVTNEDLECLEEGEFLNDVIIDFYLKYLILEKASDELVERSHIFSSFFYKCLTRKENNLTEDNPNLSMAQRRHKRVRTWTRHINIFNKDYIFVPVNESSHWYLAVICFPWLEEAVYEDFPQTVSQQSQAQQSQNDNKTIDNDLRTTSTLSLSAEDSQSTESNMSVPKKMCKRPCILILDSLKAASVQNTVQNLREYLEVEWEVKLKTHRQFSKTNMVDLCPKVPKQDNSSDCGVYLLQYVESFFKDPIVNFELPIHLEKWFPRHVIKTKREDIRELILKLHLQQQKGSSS
The class given is functional.

Test [2] addresses T3, Sentrin-specific protease 6 (Homo sapiens, UniProt Q9GZR1).
T3 sequence (Q9GZR1 whole entry): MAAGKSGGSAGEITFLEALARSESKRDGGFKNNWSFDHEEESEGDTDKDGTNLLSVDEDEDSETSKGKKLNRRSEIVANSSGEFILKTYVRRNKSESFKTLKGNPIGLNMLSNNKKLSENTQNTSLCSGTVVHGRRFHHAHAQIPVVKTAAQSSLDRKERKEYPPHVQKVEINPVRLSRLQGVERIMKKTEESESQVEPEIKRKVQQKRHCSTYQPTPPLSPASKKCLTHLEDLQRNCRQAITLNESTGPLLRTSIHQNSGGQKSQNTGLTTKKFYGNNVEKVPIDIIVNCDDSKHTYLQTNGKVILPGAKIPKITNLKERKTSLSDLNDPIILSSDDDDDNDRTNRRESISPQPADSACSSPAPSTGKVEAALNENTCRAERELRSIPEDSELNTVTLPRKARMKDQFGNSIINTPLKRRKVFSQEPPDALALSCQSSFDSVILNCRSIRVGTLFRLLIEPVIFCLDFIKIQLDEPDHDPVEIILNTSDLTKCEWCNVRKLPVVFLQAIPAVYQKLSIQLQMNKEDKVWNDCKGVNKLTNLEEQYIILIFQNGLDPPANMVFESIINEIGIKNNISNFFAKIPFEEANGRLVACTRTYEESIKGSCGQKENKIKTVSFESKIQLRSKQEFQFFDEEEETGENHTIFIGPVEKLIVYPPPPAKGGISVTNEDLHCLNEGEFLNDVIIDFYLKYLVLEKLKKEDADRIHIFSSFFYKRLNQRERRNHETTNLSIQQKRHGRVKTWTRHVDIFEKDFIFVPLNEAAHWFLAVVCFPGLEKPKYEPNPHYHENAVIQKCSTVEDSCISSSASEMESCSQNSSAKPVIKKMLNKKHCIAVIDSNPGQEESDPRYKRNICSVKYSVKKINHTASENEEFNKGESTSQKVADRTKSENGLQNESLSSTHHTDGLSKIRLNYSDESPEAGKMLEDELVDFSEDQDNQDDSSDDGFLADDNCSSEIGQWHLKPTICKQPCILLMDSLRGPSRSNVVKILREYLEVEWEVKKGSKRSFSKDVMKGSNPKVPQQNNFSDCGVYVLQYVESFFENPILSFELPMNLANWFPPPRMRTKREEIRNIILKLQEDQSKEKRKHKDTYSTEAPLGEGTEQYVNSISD
The test is classed as functional.

Test [3] has as its target T4, Sentrin-specific protease 8 (Homo sapiens, UniProt Q96LD8).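 Note: luminescence read-out of SENP8 inhibition, dose-response confirmation following an ultra-high-throughput screen.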
T4 sequence (Q96LD8 whole entry): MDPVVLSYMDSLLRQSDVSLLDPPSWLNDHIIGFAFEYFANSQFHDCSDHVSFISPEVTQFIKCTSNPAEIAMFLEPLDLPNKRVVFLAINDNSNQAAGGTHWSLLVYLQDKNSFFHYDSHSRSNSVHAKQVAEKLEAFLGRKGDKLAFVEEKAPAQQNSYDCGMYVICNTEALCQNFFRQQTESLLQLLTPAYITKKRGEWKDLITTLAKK
The class given is functional.

Test [4] in a line: reduction of Shn3 3'UTR-driven luciferase in osteoblasts – cell-based, Clone20 osteoblasts, firefly luciferase, cherry-picked, dose response (AID 624132).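 Note: firefly luciferase luminescence from reporter carrying the Shn3 3'UTR in osteoblasts.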 The test is classed as functional.
Test [5] is described as follows: loss of viability in HepG2 cells – cell-based, CellTiter-Glo, cherry-picked, cytotoxicity control for Shn3 inhibitor project, dose response (AID 624134). The test is classed as functional.
A short description of test [6]: non-specific 3'UTR reporter inhibition in Clone20-Shn3RL – cell-based, Renilla luciferase, cherry-picked, counter-screen for Shn3 inhibitor project, dose response (AID 624133). The test is classed as functional. Background: Counterscreens check selectivity or assay interference.
Test [7] can be described thus: viability of uninfected HEp-2 cells – cell-based, HTS, cytotoxicity control for RSV inhibitor project, dose response (AID 2410). The class given is functional. To be noted: human respiratory syncytial virus.
The nature of test [8]: Trypanosoma cruzi growth suppression in host cells – NIH3T3 host cells, beta-gal luminescence, confirmation (AID 2044).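 Note: intracellular parasites grown in NIH/3T3 mouse fibroblasts as host cells; luminescent beta-galactosidase reporter signal from transgenic T. cruzi replicating inside host cells; inhibitors lower the luminescence signal.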 The test is classed as functional, cell-based.
The nature of test [9]: NIH3T3 cell viability loss – ATP luminescence, mouse fibroblasts, counter-screen, dose response (AID 2010).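 Note: cells exposed to compound for about 90 hours before reading.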 The test is classed as functional, cell-based.
Test [10] concerns the target T5, Polyadenylate-binding protein 1 (Homo sapiens, UniProt P11940). Kind of test: MLLE binding blockers, Cy5 peptide tracer – biochemical, fluorescence polarization, Cy5-PAM2 peptide, secondary, miRNA deadenylation inhibitor project, dose response (AID 602260). The test is classed as functional. To be noted: read-out: IC50_Mean.
Test [11] addresses T5, Polyadenylate-binding protein 1. Briefly: MLLE domain peptide-binding blockers, IC50 – biochemical, fluorescence polarization, FITC-PAM2 peptide, dose response (AID 602259). The test is classed as functional. To be noted: read-out: IC50_Mean. For orientation: Polarisation of emitted light reports the rotation of a fluorescent probe.
Test [12] concerns the target T6, Short transient receptor potential channel 4 (Mus musculus, UniProt Q9QUQ5).
T6 sequence (Q9QUQ5 whole entry): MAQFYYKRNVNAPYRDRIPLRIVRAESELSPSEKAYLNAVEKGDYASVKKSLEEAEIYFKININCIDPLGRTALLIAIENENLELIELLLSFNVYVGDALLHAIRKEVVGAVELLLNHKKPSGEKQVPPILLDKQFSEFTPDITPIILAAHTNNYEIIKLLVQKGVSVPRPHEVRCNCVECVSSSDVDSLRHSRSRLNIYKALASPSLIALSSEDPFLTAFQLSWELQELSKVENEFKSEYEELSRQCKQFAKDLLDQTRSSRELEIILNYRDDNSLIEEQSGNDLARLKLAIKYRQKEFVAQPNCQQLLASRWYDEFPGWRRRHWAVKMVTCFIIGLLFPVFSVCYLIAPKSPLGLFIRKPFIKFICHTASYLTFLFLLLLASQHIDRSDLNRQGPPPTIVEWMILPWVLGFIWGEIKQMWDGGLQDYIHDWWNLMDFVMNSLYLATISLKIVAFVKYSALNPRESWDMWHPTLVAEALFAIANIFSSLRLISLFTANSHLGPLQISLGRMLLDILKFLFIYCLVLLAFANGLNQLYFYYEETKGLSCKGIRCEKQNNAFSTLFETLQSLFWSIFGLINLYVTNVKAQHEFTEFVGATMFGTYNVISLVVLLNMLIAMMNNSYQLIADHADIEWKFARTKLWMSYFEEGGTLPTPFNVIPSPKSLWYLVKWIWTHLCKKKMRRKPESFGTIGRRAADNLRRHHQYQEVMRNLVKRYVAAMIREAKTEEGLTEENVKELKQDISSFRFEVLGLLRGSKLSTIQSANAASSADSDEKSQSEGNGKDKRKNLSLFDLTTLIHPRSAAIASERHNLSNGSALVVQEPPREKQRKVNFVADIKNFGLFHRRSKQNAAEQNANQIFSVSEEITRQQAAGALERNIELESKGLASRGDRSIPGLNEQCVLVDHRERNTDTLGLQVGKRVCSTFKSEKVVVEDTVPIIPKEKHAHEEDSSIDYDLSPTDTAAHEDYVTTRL
Kind of test: calcium entry via TRPC4 opening agents – cell-based, HEK293 TRPC4/mu-opioid, Fluo-4 calcium, dose response (AID 434937). The class given is functional.

Test [13] can be described thus: luciferase reporter signal suppression in cells – H4 neuroglioma cells, luminescence, dose response (AID 1990). The class given is functional, cell-based. A general note: Reporter assays use an easily measured gene product as a stand-in for the process of interest.
Test [14] in a line: Luminescence Cell-Based Dose Response HTS to Identify Inhibitors of 5'UTR Stem-Loop Driven Prion Protein mRNA Translation in H4 Neuroglioblastoma Cells. [Related pubchem assays: 1827 (Project Summary), 1813 (Primary HTS)]. The test is classed as functional.
Test [15] can be described thus: alpha-synuclein stem-loop luciferase translation blockers – H4 neuroglioma cells, luminescence, confirmation (AID 1988). The test is classed as functional, cell-based.
Test [16] in a line: Luminescence Cell-Based Dose Retest to Confirm Inhibitors of Cancer Stem Cells. [Related pubchem assays (depositor defined):AID2717, AID2721]. The class given is functional. To be noted: Homo sapiens.
Another test concerns INS1. Briefly: INS-1E survival protection against cytokine death – cell-based, luminescence, retest, dose response (AID 449756).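 Note: cell death triggered by IL-1 beta plus TNF-alpha plus IFN-gamma mixture; protective hits raise ATP signal compared with cytokine alone wells.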 The class given is functional. To be noted: Rattus norvegicus.

The term AC50 denotes the midpoint of the concentration-response curve, whichever way the signal moves. For orientation: CC50 means the concentration that lowers cell viability or growth by half. Broadly, the EC50 is the concentration needed to bring the measured effect to its halfway point.

Activity calls are given as the source filed them.

T5 sequence (P11940 whole entry, the tested form may be a part): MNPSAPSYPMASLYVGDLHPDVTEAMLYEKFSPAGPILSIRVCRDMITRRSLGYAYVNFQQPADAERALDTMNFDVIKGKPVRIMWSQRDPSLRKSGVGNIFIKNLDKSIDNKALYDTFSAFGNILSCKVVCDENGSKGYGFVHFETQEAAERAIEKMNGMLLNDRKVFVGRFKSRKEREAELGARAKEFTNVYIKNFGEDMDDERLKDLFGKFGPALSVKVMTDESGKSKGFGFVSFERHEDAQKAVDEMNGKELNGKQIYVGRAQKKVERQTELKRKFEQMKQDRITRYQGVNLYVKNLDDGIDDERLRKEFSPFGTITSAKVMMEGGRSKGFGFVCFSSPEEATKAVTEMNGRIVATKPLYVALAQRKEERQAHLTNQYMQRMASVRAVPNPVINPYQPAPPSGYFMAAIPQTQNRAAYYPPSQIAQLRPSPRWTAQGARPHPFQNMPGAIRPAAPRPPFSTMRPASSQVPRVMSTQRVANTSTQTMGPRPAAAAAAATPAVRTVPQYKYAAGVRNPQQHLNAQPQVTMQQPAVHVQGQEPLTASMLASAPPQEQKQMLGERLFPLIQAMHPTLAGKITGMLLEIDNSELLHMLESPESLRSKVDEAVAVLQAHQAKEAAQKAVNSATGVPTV

With `Cc1ccc(Oc2cc(-n3nc(C)cc3C)ncn2)cc1`, the IC50 is 23.5 µM (active) at Caspase-3, 9.25 µM (active) in test [1], 35.7 µM (active) in test [2] and 54.7 µM (active) in test [3].
Take `CN(CC(=O)Nc1ccccc1Cl)C(=O)c1cccc(S(=O)(=O)N2CCN(Cc3ccccc3)CC2)c1`: the concentration at half-maximal activity (AC50) in [4] is 3.47 µM (active); in [5], 50.5 µM (active); in test [6], 4.83 µM (active).
For `Sc1nnc2c3ccccc3n(CCc3ccccc3)c2n1`, the CC50 in test [7] is 23.8 µM (active). Besides, the EC50 in test [8] was 2.69 µM (active); in test [9] it was > 60 µM (not active). Besides, the IC50 in test [10] and in test [11] was > 66 µM (inactive) in each case.
With `Cc1csc2c(N3CCN(C(S)=Nc4ccc(F)cc4F)CC3)ncnc12`, the EC50 in test [12] is 1.88 µM (active).
With `CN(C)CCCN(C(=O)c1ccc(S(=O)(=O)N2CCCc3ccccc32)cc1)c1nc2ccc(F)cc2s1`, the EC50 in test [13] is 12.6 µM (active); in test [14] it was > 120 µM (not active); in test [15] it was > 120 µM (not active); in [12] it was 2.37 µM (active).
As for `O=C(Oc1ccc2ccccc2c1Cl)N1CCCCCC1`, the CC50 in [7] is 27.6 µM (active). Also, the IC50 on Caspase-3 is 17.4 µM (active); in test [1] it was 7.15 µM (active); in [2] it was 10.6 µM (active); in test [3], 15.4 µM (active).
With `COc1cc(/C=C/C(=O)Nc2nnc(C(C)(C)C)s2)cc(OC)c1OC`, the IC50 in test [10] and in [11] was > 66 µM (inactive) each time.
Take `Cc1ccc(C)c(S(=O)(=O)N2CCN(c3ncnc4sccc34)CC2)c1`: the concentration at half-maximal activity (AC50) in [16] is 1.25 µM (active); in the test with INS1 it was 3.41 µM (active); in test [4], 0.631 µM (active); in [5], 2.55 µM (active); in test [6], 2.38 µM (active).
Regarding `N=c1oc2ccccc2cc1C(=O)Nc1ccccc1`, the IC50 is 13.6 µM (active) on Caspase-3, 11.4 µM (active) in [1], 15.6 µM (active) in [2] and > 100 µM (inactive) in test [3].
With `COc1ccc(Cc2c(C(C)(C)C)nc3c(C)cc(Br)cn23)c(C)c1`, the IC50 in test [10] is > 66 µM (inactive); in [11], 52.7 µM (inactive).
As to `CC(=O)c1cc(-c2ccccc2)[nH]c1N1CCOCC1`, the IC50 in test [10] and in [11] was > 66 µM (inactive) each time.
Take `COc1ccccc1/C=C/CN1CCC(n2nccc2NC(=O)CCc2ccccc2)CC1`: the AC50 with INS1 is 5.75 µM (active); in test [4] it was 1.91 µM (active); in test [5], 42.3 µM (active); in [6] it was 4.23 µM (active).
